# Assay results taken from patent US12357582B2, “Hydrophobic ion pairing and flash nanoprecipitation for formation of controlled-release nanocarrier formulations” (The Trustees of Princeton University, priority 2017, dated 2025).
# How the values were obtained:
# [1] = Ion-pairing screening using gentamicin API; format: physicochemical; parameters: key to Reprecipitation: + details reprecipitation observed; − details no reprecipitation observed; key to Organic Dissolution: ++ details complete dissolution; + details non-complete dissolution; key to Precipitation: +++: + details qualitative observations of the amount of solid formed; ++: + details qualitative observations of the amount of solid formed; + details qualitative observations of the amount of solid formed; − details no solids formed; conditions: for Precipitation: gentamicin API mixed with IP in water; for Reprecipitation: gentamicin:IP organic solution diluted ten-fold in water; for Organic Dissolution: gentamicin:IP pellet in organic solvent (THF)
# Procedure: (§1) The fifteen ion pairing (IP) reagents listed above were screened to assess if hydrophobic API salt forms would be formed and would precipitate from solution. Ion pair and API drug properties were calculated with Molinspiration software (Molinspiration Cheminformatics, Slovakia). APIs were dissolved in water at 5 mg mL^−1 concentration and mixed with IPs dissolved in water at varying concentrations to yield different API to IP ratios. The screening process determines whether a particular IP may be used with a given API for NC formation.
# (§2) In the case of pre-ion pairing, API and IP are mixed in water to form a water-insoluble precipitate (referred to as an API:IP complex). The water is then removed, and the API:IP complex is dissolved into an organic solvent (along with a block copolymer) for use in the organic stream in FNP. In this case, the API:IP complex is treated as a component in the organic stream of normal FNP. The screening process for the pre-ion paired method FNP involves four sequential tests. • 1. The first test examines the solubility of the IP agent. IP is added to DI water at a concentration that would be required for a 1:1 API:IP charge ratio if the API were dissolved at 5 mg mL^−1. (In this text the ratios are presented as charge ratios of API:IP.) Substantial […] in water is required for successful ion pairing. • 2. The second test examines whether an in situ API:IP complex can be formed in a single step. For example, The second test examines whether solids precipitate upon mixing of the aqueous IP solution with an aqueous API solution. Alternatively, IP in an organic, but water miscible, solution is mixed against the aqueous API solution. The final solution is checked visually to see if precipitation has occurred. In this test, the IP solution is at a concentration such that mixing equal volumes of IP solution and API solution will form a 1:1 API to IP charge ratio. Four API:IP ratios are investigated: 200 μL API solution is mixed with 100 μL IP solution for a 1:0.5 charge ratio; 200 μL API solution is mixed with 200 μL IP solution for a 1:1 charge ratio; 200 μL API solution is mixed with 400 μL IP solution for a 1:2 charge ratio; and 200 μL API solution is mixed with 800 μL IP solution for a 1:4 charge ratio. • 3. The third test examines whether the API:IP complex can be solubilized in the organic phase for subsequent FNP NC formation. Pellets of the precipitate formed in the second test are tested to see if they are soluble in a water-miscible organic solvent such as tetrahydrofuran (THF) or more polar solvents such as dimethyl sulfoxide (DMSO) or methanol (MeOH). For example, if precipitates were formed in the second test, the mixture can be centrifuged at 20800 rcf for 20 minutes, and the aqueous supernatant can be removed in order to recover pelleted precipitate. 200 μL of organic solvent can be added to the pellet; the solution can then be mixed to determine whether the pellet dissolves. • 4. The final (fourth) test assesses if the hydrophobic API:IP complex will re-precipitates when mixed with water, e.g., upon FNP mixing with water as the antisolvent. The organic solvent containing API:IP from the third test is diluted ten-fold in water, and precipitate formation is examined. If a precipitate forms, then the construct is suitable for use in FNP. In Situ Ion Pairing
# Several water-soluble counter ion salts IPs were chosen for this investigation to determine the physical properties of the counter ions required for successful complex formation (FIG. 3). A range of carboxylate and sulfonate salt IPs whose acid forms have pKa ranging 5 to −1.9 were tested, as well as salts with a wide range of solubilities and LogP values as high as 7.6 or as low as −4.92. API was dissolved at 5 mg mL^−1 in water in 1× volume, and rapidly mixed with 1× volume of dissolved IP to give a final mixture containing a 1:1 API:IP charge ratio. Mixtures were visually observed to assess if precipitates rapidly formed. […]
# [2] = Ion-pairing screening using polymyxin B API; format: physicochemical; parameters: key to Reprecipitation: + details re-precipitation observed; − details no re-precipitation observed; key to Organic Dissolution: ++ details complete dissolution; + details non-complete dissolution; key to Precipitation: +++: + details qualitative observations of the amount of solid formed; ++: + details qualitative observations of the amount of solid formed; + details qualitative observations of the amount of solid formed; − details no solids formed; conditions: for Precipitation: polymyxin B API mixed with IP in water; for Reprecipitation: polymyxin B:IP organic solution diluted ten-fold in water; for Organic Dissolution: polymyxin B:IP pellet in organic solvent (THF); for precipitation upon mixing and NC formation: FIG. 4, polymyxin
# Procedure: as §1, §2
# Several water-soluble counter ion salts IPs were chosen for this investigation to determine the physical properties of the counter ions required for successful complex formation (FIG. 3). A range of carboxylate and sulfonate salt IPs whose acid forms have pKa ranging 5 to −1.9 were tested, as well as salts with a wide range of solubilities and LogP values as high as 7.6 or as low as −4.92. API was dissolved at 5 mg mL^−1 in water in 1× volume, and rapidly mixed with 1× volume of dissolved IP to give a final mixture containing a 1:1 API:IP charge ratio. Mixtures were visually observed to assess if precipitates rapidly formed.
# [3] = ambient temperature; cited from earlier work
# [4] = API release from NCs by dialysis (BCA assay); format: physicochemical
# Procedure: Drug concentrations were determined with the bicinchoninic acid (BCA) assay (Spectramax i3x, Molecular Devices) with absorbance measurements at 562 nm, using a standard curve of the same drug (unencapsulated) as the reference. API fractional release was determined by dialyzing NC sample in 100-fold 1×PBS. […] The drug concentration in each aliquot was determined by the BCA assay at 562 nm. The released fraction is the API concentration at each time point divided by the initial API concentration before dialysis (Eq. 2).
# API release rates from NCs are a critical determinant of dosing frequency, in vivo active concentrations, and overall therapeutic effectiveness. The release rates of polymyxin B were assessed by enclosing NCs in an 8 kDa MWCO dialysis bag and diluting into a thousand-fold excess volume of PBS to simulate an “open sink” condition at room temperature. Encapsulated polymyxin within dialysis bags was measured over time, using the BCA assay, to determine the amount of API that had been released (FIGS. 7A, 7B, and 7C).
# [5] = Particle size and polydispersity by dynamic light scattering; format: physicochemical; conditions: PCL5k-b-PEG5k NPs
# [6] = test system: cells; assay: Lysozyme activity after release (ability to lyse cells); format: biochemical
# [7] = OVA with at least one charge equivalent of quaternary ammonium surfactant
Molecule,Precipitation [1],Precipitation [2],Reprecipitation [2],Organic Dissolution [2],also measured
sodium deoxycholate,++,+++,,,
"CCCCCCCCCCCCCC(=O)[O-].[Na+] [Sodium Myristate, sodium myristate]",−,++,,,
"CCCCCC(=O)[O-].[Na+] [Sodium Hexanoate, Sodium hexanoate]",−,−,,,
"CCCCCCCS(=O)(=O)[O-].[Na+] [Sodium 1-Heptanesulfonate, sodium 1-heptanesulfonate]",−,+,−,+,
"O=S(=O)([O-])CCS(=O)(=O)[O-].[Na+].[Na+] [Sodium 1,2-Ethanedisulfonate, sodium 1,2-ethanesulfonate]",−,−,,,
"CCCCCCCC/C=C\CCCCCCCC(=O)O [Oleic acid, oleic acid]",,,,,solubility in water [3]: ~3e-07 g/g
"CCCCCCCCS(=O)(=O)[O-].O.[Na+] [Sodium 1-Octanesulfonate Monohydrate, sodium 1-octanesulfonate monohydrate]",++,+++,−,++,Reprecipitation [1]: −; Organic Dissolution [1]: ++
"O=S(=O)(O)c1ccccc1 [Benzenesulfonic Acid Monohydrate, benzenesulfonic acid monohydrate]",−,−,,,
"CCCCCCCCCC(=O)[O-].[Na+] [Sodium Decanoate, sodium decanoate]",+,++,−,,
"CCCCCCCC/C=C\CCCCCCCC(=O)[O-].[Na+] [Sodium Oleate, sodium oleate]",−,+++,+,++,precipitation upon mixing and NC formation [2]: rapid precipitation and successful NC formation
"Mastoparan 7 [MP7, reference compound]",,,,,"characteristic release time (time for 50% release) ([4]; MP7, NPs are MP7:SDS 1:1 PCL5k-b-PEG5k): 2.9 h"
"O=S(=O)([O-])c1ccc2ccccc2c1.[Na+] [Sodium 2-Naphthalenesulfonate, sodium 2-naphthalenesulfonate]",++,++,−,++,Reprecipitation [1]: −; Organic Dissolution [1]: ++
"CCCCCCCCCCCCc1ccc(S(=O)(=O)[O-])cc1.[Na+] [Sodium Dodecylbenzenesulfonate, sodium dodecylbenezenesulfonate]",+++,+++,+,++,Reprecipitation [1]: +; Organic Dissolution [1]: ++; precipitation upon mixing and NC formation [2]: rapid precipitation and successful NC formation
Lysozyme [LYZ],,,,,"NP diameter ([5]; LYZ pre-formed with SDS or DXS): ~150 nm; PDI ([5]; LYZ pre-formed with SDS or DXS): < 0.2; released LYZ with activity equal to LYZ that was never encapsulated ([6]; following release from NPs, over all formulations): up to 100%; released LYZ that was bioactive ([6]; paired 1:1 with DXS): 100%; released LYZ that was bioactive ([6]; paired 1:1 with OA): 100%; released LYZ that was bioactive ([6]; paired 1:1 with SDS): approximately 60%; released LYZ that was bioactive ([6]; paired 1:2 with DXS): approximately 60%; released LYZ that was bioactive ([6]; paired 1:2 with OA): 100%; released LYZ that was bioactive ([6]; paired 1:2 with SDS): < 10%; released LYZ that was bioactive ([6]; paired 1:4 with DXS): approximately 60%; released LYZ that was bioactive ([6]; paired 1:4 with OA): approximately 60%; released LYZ that was bioactive ([6]; paired 1:4 with SDS): < 10%; LYZ released by 14 days ([4]; NPs with OA, 1:2 charge ratio): 20%; LYZ released by 14 days ([4]; NPs with OA, 1:4 charge ratio): 10%; LYZ released by 14 days ([4]; NPs with SDS, 1:1 charge ratio): 50%"
"CCCCCCCCCCS(=O)(=O)[O-].[Na+] [Sodium 1-Decanesulfonate, sodium 1-decanesulfonate]",+++,+++,+,++,Reprecipitation [1]: +; Organic Dissolution [1]: ++
"CC1(C)C2CC[C@]1(CS(=O)(=O)O)C(=O)C2 [(1R)-(-)-10-Camphorsulfonic Acid, (1R)-(−)-10-camphorsulfonic acid]",−,−,,,
"CCCCCCCCCCCCOS(=O)(=O)[O-].[Na+] [Sodium Dodecyl Sulfate, sodium dodecyl sulfate]",+++,+++,+,++,Reprecipitation [1]: +; Organic Dissolution [1]: ++; precipitation upon mixing and NC formation [2]: rapid precipitation and successful NC formation
"Ovalbumin (protein, UniProt P01012 2-386, looked up, anionic protein, 385 amino acid residues, 43,000 Da) Ovalbumin: GSIGAASMEFCFDVFKELKVHHANENIFYCPIAIMSALAMVYLGAKDSTRTQINKVVRFDKLPGFGDSIEAQCGTSVNVHSSLRDILNQITKPNDVYSFSLASRLYAEERYPILPEYLQCVKELYRGGLEPINFQTAADQARELINSWVESQTNGIIRNVLQPSSVDSQTAMVLVNAIVFKGLWEKAFKDEDTQAMPFRVTEQESKPVQMMYQIGLFRVASMASEKMKILELPFASGTMSMLVLLPDEVSGLEQLESIINFEKLTEWTSSNVMEERKIKVYLPRMKMEEKYNLTSVLMAMGITDVFSSSANLSGISSAESLKISQAVHAAHAEINEAGREVVGSAEAGVDAASVSEEFRADHPFLFCIKHIATNAVLFFGRCVSP",,,,,"NP diameter [5, 7]: ~150 nm; PDI [5, 7]: < 0.2"
